Source: publication PMC9090415, “Discovery of small molecule inhibitors of Plasmodium falciparum apicoplast DNA polymerase” (Journal of Enzyme Inhibition and Medicinal Chemistry, 2022)

Target: P. falciparum apicoplast DNA polymerase (Pf-apPOL) (Plasmodium falciparum, UniProt Q8ILY1)
Experiment: Fluorescence-based high-throughput DNA polymerase assay (molecular beacon), primary screen and dose-response;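 for % inhibition ApPOL 90': test concentration in µM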;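 for % inhibition apPOL 180': test concentration in µM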
Format: biochemical
Details: for DNA Pol: 90 min, 10 µM; for IC50: supplemental file 2, sheet IC50 nontoxic compounds, Pf-apPOL
How it was run: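 Single-point screening used 10 µM compound with 20 nM polymerase, 20 nM hairpin substrate and 6 µM dNTPs for 90 min at 25 °C. Confirmatory titrations (2.5–80 µM) followed fluorescence at three times, and IC50 was derived from a fit including a cooperativity term n.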

P. falciparum apicoplast DNA polymerase (Pf-apPOL), sequence (Q8ILY1 entry or part of it): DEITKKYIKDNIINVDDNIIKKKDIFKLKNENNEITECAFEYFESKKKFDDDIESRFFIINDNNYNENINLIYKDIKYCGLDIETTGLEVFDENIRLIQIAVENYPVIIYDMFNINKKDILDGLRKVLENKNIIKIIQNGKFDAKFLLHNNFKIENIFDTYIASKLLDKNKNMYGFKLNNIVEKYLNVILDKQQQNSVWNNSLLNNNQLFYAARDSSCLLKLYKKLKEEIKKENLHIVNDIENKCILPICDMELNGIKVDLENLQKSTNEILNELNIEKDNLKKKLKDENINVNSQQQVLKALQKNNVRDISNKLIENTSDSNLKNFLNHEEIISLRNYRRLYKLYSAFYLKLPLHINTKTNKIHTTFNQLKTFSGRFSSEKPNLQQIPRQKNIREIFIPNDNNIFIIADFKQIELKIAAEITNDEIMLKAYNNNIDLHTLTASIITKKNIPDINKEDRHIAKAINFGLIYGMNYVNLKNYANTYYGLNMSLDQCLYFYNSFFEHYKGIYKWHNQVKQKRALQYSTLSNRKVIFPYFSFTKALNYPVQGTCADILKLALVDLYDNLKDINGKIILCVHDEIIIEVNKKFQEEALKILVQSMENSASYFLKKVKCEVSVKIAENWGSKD

## CCCCc1ccc(NC(=O)CSc2nc(C3CCCCC3)c(C#N)c(=O)[nH]2)c(C)c1 [Molecule 8, CCCCc1ccc(c(c1)C)NC(=O)CSc1nc(C2CCCCC2)c(c(=O)[nH]1)C#N]
'DNA Pol' of the 186 hits list (primary screen result), unit not given
  DNA Pol: 95
DRC-1, concentration 2.5
  % inhibition Apo pol 10': -1.955%
DRC-1, concentration 5
  % inhibition Apo pol 10': 13.3371%
DRC-1, concentration 10
  % inhibition Apo pol 10': 62.6303%
DRC-1, concentration 20
  % inhibition Apo pol 10': 77.3201%
DRC-1, concentration 40
  % inhibition Apo pol 10': 94.4176%
DRC-1, concentration 80
  % inhibition Apo pol 10': 94.8178%
DRC-1, 90', concentration 2.5
  % inhibition Apol 90': 1.126%
DRC-1, 90', concentration 5
  % inhibition Apol 90': 14.1038%
DRC-1, 90', concentration 10
  % inhibition Apol 90': 58.4598%
DRC-1, 90', concentration 20
  % inhibition Apol 90': 77.2827%
DRC-1, 90', concentration 40
  % inhibition Apol 90': 94.9708%
DRC-1, 90', concentration 80
  % inhibition Apol 90': 95.9505%
DRC-1, 180', concentration 2.5
  % inhibition apPOL 180': 1.158%
DRC-1, 180', concentration 5
  % inhibition apPOL 180': 7.482%
DRC-1, 180', concentration 10
  % inhibition apPOL 180': 46.1044%
DRC-1, 180', concentration 20
  % inhibition apPOL 180': 69.2922%
DRC-1, 180', concentration 40
  % inhibition apPOL 180': 95.0497%
DRC-1, 180', concentration 80
  % inhibition apPOL 180': 96.1544%
DRC-2, 5', concentration 20 (unit not given)
  % inhibition Apo pol 5': 40%
DRC-2, 40', concentration 20 (unit not given)
  % inhibition Apol 40': 48%
DRC-2, 90', concentration 20 (unit not given)
  % inhibition ApPOL 90': 48%
DRC-2, 180', concentration 20 (unit not given)
  % inhibition apPOL 180': 40%
DRC-2, 5', concentration 2.5
  % inhibition Apo pol 5': -2.67%
DRC-2, 5', concentration 5
  % inhibition Apo pol 5': 2.83%
DRC-2, 5', concentration 10
  % inhibition Apo pol 5': 12%
DRC-2, 5', concentration 20
  % inhibition Apo pol 5': 40%
DRC-2, 5', concentration 40
  % inhibition Apo pol 5': 61%
DRC-2, 5', concentration 80
  % inhibition Apo pol 5': 65%
DRC-2, 40', concentration 2.5
  % inhibition Apol 40': 1.81%
DRC-2, 40', concentration 5
  % inhibition Apol 40': 5%
DRC-2, 40', concentration 10
  % inhibition Apol 40': 16%
DRC-2, 40', concentration 20
  % inhibition Apol 40': 48%
DRC-2, 40', concentration 40
  % inhibition Apol 40': 72%
DRC-2, 40', concentration 80
  % inhibition Apol 40': 79%
DRC-2, 90', concentration 2.5
  % inhibition ApPOL 90': 1.18%
DRC-2, 90', concentration 5
  % inhibition ApPOL 90': 4%
DRC-2, 90', concentration 10
  % inhibition ApPOL 90': 15%
DRC-2, 90', concentration 20
  % inhibition ApPOL 90': 48%
DRC-2, 90', concentration 40
  % inhibition ApPOL 90': 73%
DRC-2, 90', concentration 80
  % inhibition ApPOL 90': 83%
DRC-2, 180', concentration 2.5
  % inhibition apPOL 180': -0.672%
DRC-2, 180', concentration 5
  % inhibition apPOL 180': -0.274%
DRC-2, 180', concentration 10
  % inhibition apPOL 180': 9%
DRC-2, 180', concentration 20
  % inhibition apPOL 180': 40%
DRC-2, 180', concentration 40
  % inhibition apPOL 180': 71%
DRC-2, 180', concentration 80
  % inhibition apPOL 180': 86%
Primary screen value of the library well, unit not given
  DNA Pol: 95

## Cc1ccc(N2CCC(NC(=O)Cc3cccs3)C2=O)cc1C (stereo not drawn) [Molecule 57]
  IC50: 29 µM

## Cc1cccc(NC(=O)Cn2ccc3c(=O)[nH]ccc32)c1C [Molecule 11, O=C(Cn1ccc2c1cc[nH]c2=O)Nc1cccc(c1C)C]
'DNA Pol' of the 186 hits list (screen value)
  DNA Pol: 54
DRC-1, conc 2.5
  % inhibition Apo pol 10': 3.616%
DRC-1, conc 5
  % inhibition Apo pol 10': 26.2157%
DRC-1, conc 10
  % inhibition Apo pol 10': 64.035%
DRC-1, conc 20
  % inhibition Apo pol 10': 84.2642%
DRC-1, conc 40
  % inhibition Apo pol 10': 89.6589%
DRC-1, conc 80
  % inhibition Apo pol 10': 84.1772%
DRC-1, 90', conc 2.5
  % inhibition Apol 90': 0.4643%
DRC-1, 90', conc 5
  % inhibition Apol 90': 14.6206%
DRC-1, 90', conc 10
  % inhibition Apol 90': 51.1257%
DRC-1, 90', conc 20
  % inhibition Apol 90': 80.5216%
DRC-1, 90', conc 40
  % inhibition Apol 90': 91.1147%
DRC-1, 90', conc 80
  % inhibition Apol 90': 90.9413%
DRC-1, 180', conc 2.5
  % inhibition apPOL 180': -2.306%
DRC-1, 180', conc 5
  % inhibition apPOL 180': 3.486%
DRC-1, 180', conc 10
  % inhibition apPOL 180': 34.4928%
DRC-1, 180', conc 20
  % inhibition apPOL 180': 70.7317%
DRC-1, 180', conc 40
  % inhibition apPOL 180': 89.3869%
DRC-1, 180', conc 80
  % inhibition apPOL 180': 93.0322%
DRC-2, 5', conc 2.5
  % inhibition Apo pol 5': 1.64%
DRC-2, 5', conc 5
  % inhibition Apo pol 5': 23%
DRC-2, 5', conc 10
  % inhibition Apo pol 5': 46%
DRC-2, 5', conc 20
  % inhibition Apo pol 5': 49%
DRC-2, 5', conc 40
  % inhibition Apo pol 5': 47%
DRC-2, 5', conc 80
  % inhibition Apo pol 5': 39%
DRC-2, 40', conc 2.5
  % inhibition Apol 40': 0.556%
DRC-2, 40', conc 5
  % inhibition Apol 40': 28%
DRC-2, 40', conc 10
  % inhibition Apol 40': 58%
DRC-2, 40', conc 20
  % inhibition Apol 40': 67%
DRC-2, 40', conc 40
  % inhibition Apol 40': 69%
DRC-2, 40', conc 80
  % inhibition Apol 40': 66%
DRC-2, 40', concentration 10
  % inhibition Apol 40': 58%
DRC-2, 40', concentration 40
  % inhibition Apol 40': 69%
DRC-2, 90', conc 2.5
  % inhibition ApPOL 90': -1.29%
DRC-2, 90', conc 5
  % inhibition ApPOL 90': 24%
DRC-2, 90', conc 10
  % inhibition ApPOL 90': 58%
DRC-2, 90', conc 20
  % inhibition ApPOL 90': 70%
DRC-2, 90', conc 40
  % inhibition ApPOL 90': 73%
DRC-2, 90', conc 80
  % inhibition ApPOL 90': 72%
DRC-2, 90', concentration 10
  % inhibition ApPOL 90': 58%
DRC-2, 180', conc 2.5
  % inhibition apPOL 180': -8%
DRC-2, 180', conc 5
  % inhibition apPOL 180': 13%
DRC-2, 180', conc 10
  % inhibition apPOL 180': 50%
DRC-2, 180', conc 20
  % inhibition apPOL 180': 69%
DRC-2, 180', conc 40
  % inhibition apPOL 180': 77%
DRC-2, 180', conc 80
  % inhibition apPOL 180': 77%
DRC-2, 180', concentration 20
  % inhibition apPOL 180': 69%
DRC-2, 180', concentration 40
  % inhibition apPOL 180': 77%
DRC-2, 180', concentration 80
  % inhibition apPOL 180': 77%
Primary screen value, "DNA Pol"
  DNA Pol: 54

## Cc1cc(C)cc(-n2nc3c(c2NC(=O)c2ccco2)CSC3)c1 [KU0055926]
DRC-1, concentration 2.5
  % inhibition Apo pol 10': 8.0326%
DRC-1, concentration 5
  % inhibition Apo pol 10': 29.0516%
DRC-1, concentration 10
  % inhibition Apo pol 10': 59.7607%
DRC-1, concentration 20
  % inhibition Apo pol 10': 82.6519%
DRC-1, concentration 40
  % inhibition Apo pol 10': 88.4046%
DRC-1, concentration 80
  % inhibition Apo pol 10': 87.3935%
DRC-1, 90', concentration 2.5
  % inhibition Apol 90': -0.9298%
DRC-1, 90', concentration 5
  % inhibition Apol 90': 15.258%
DRC-1, 90', concentration 10
  % inhibition Apol 90': 43.5557%
DRC-1, 90', concentration 20
  % inhibition Apol 90': 72.7845%
DRC-1, 90', concentration 40
  % inhibition Apol 90': 86.0941%
DRC-1, 90', concentration 80
  % inhibition Apol 90': 88.1488%
DRC-1, 180', concentration 2.5
  % inhibition apPOL 180': -5.803%
DRC-1, 180', concentration 5
  % inhibition apPOL 180': 4.111%
DRC-1, 180', concentration 10
  % inhibition apPOL 180': 27.2882%
DRC-1, 180', concentration 20
  % inhibition apPOL 180': 60.1388%
DRC-1, 180', concentration 40
  % inhibition apPOL 180': 79.5226%
DRC-1, 180', concentration 80
  % inhibition apPOL 180': 84.9587%
DRC-2, 5', concentration 2.5
  % inhibition Apo pol 5': 11%
DRC-2, 5', concentration 5
  % inhibition Apo pol 5': 21%
DRC-2, 5', concentration 10
  % inhibition Apo pol 5': 38%
DRC-2, 5', concentration 20
  % inhibition Apo pol 5': 50%
DRC-2, 5', concentration 40
  % inhibition Apo pol 5': 54%
DRC-2, 5', concentration 80
  % inhibition Apo pol 5': 54%
DRC-2, 40', concentration 2.5
  % inhibition Apol 40': 12%
DRC-2, 40', concentration 5
  % inhibition Apol 40': 24%
DRC-2, 40', concentration 10
  % inhibition Apol 40': 41%
DRC-2, 40', concentration 20
  % inhibition Apol 40': 60%
DRC-2, 40', concentration 40
  % inhibition Apol 40': 69%
DRC-2, 40', concentration 80
  % inhibition Apol 40': 71%
DRC-2, 90', concentration 2.5
  % inhibition ApPOL 90': 10%
DRC-2, 90', concentration 5
  % inhibition ApPOL 90': 21%
DRC-2, 90', concentration 10
  % inhibition ApPOL 90': 38%
DRC-2, 90', concentration 20
  % inhibition ApPOL 90': 60%
DRC-2, 90', concentration 40
  % inhibition ApPOL 90': 71%
DRC-2, 90', concentration 80
  % inhibition ApPOL 90': 74%
DRC-2, 180', concentration 2.5
  % inhibition apPOL 180': 6.36%
DRC-2, 180', concentration 5
  % inhibition apPOL 180': 13%
DRC-2, 180', concentration 10
  % inhibition apPOL 180': 27%
DRC-2, 180', concentration 20
  % inhibition apPOL 180': 53%
DRC-2, 180', concentration 40
  % inhibition apPOL 180': 68%
DRC-2, 180', concentration 80
  % inhibition apPOL 180': 74%
conc. 5, 5', DRC-2
  % inhibition Apo pol 5': 21%
conc. 5, 90', DRC-2
  % inhibition ApPOL 90': 21%
conc. 10, 5', DRC-2
  % inhibition Apo pol 5': 38%
conc. 10, 90', DRC-2
  % inhibition ApPOL 90': 38%
conc. 20, 40', DRC-2
  % inhibition Apol 40': 60%
conc. 20, 90', DRC-2
  % inhibition ApPOL 90': 60%
conc. 40, 5', DRC-2
  % inhibition Apo pol 5': 54%
conc. 40, 90', DRC-2
  % inhibition ApPOL 90': 71%
conc. 80, 5', DRC-2
  % inhibition Apo pol 5': 54%
conc. 80, 40', DRC-2
  % inhibition Apol 40': 71%
conc. 80, 90', DRC-2
  % inhibition ApPOL 90': 74%
conc. 80, 180', DRC-2
  % inhibition apPOL 180': 74%
Primary screen value by plate and well
  DNA Pol: 58
Primary screen value of the 186 hits, unit not given
  DNA Pol: 58

## Cc1cc(C)nc(Nc2nc(CC(=O)Nc3nc(-c4ccco4)cs3)cs2)n1 [Molecule 92]
  IC50: 8.58 µM
